Structures can show the parent of a compound that is named as a salt.
Legend:
JH2 domain of human Tyk2 = target: T1, JH2 domain of human Tyk2 (Homo sapiens, UniProt P29597); assay: JH2 biochemical assay (TR-FRET probe displacement); type: binding
T1 construct: 10×His-tagged TYK2 JH2 domain (amino acid 575-876)
Method in brief: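 10×His-tagged human TYK2 JH2 (aa 575-876, 2 nM) incubated 60 min with 2 nM fluorescent probe, 0.1 nM Tb anti-His antibody and compound (10-point 3-fold series from […] top). TR-FRET 520/495 nm ratio, falling with probe displacement, normalized and fitted to a 4-parameter logistic for IC50.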

[1] = tested on: Tyk2 kinase activity on STAT4; assay: pSTAT4 cell assay (MSD, NK92 cells); type: cell-based; conditions: compounds 1 hr
Method in brief: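 Serum-starved NK92 cells, which natively express Tyk2 and STAT4, were pretreated for 1 h with a 10-point 4-fold dilution series from 10 μM. They were then stimulated with 30 ng/mL IL2 for 15 min. Phospho-STAT in lysates was quantified by MSD with anti-STAT4 antibodies, and IC50 was obtained from 4-parameter logistic fits.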

[2] = TR-FRET probe displacement, JH2 domain of human Tyk2

T1 sequence (P29597 575-876): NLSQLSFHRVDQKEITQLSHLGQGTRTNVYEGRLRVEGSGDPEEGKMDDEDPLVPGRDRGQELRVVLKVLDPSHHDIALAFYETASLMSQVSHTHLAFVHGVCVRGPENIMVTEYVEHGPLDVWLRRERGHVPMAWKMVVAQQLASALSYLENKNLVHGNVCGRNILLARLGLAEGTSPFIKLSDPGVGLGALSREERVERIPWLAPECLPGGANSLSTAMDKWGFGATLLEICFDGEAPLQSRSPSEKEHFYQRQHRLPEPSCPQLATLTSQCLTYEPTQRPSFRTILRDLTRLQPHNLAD

SMILES | IC50 (JH2 domain of human Tyk2; JH2 biochemical assay) | IC50 ([1]; stimulated 15 minutes) | IC50 (JH2 domain of human Tyk2; [2]) | IC50 ([1]; then stimulated 15 minutes)
COc1ccc(-c2nc(C)cc(N3CC4(CC4)c4cnc(NC(C)=O)cc43)n2)cn1 [Example 254, N-(1′-(2-(6-methoxypyridin-3-yl)-6-methylpyrimidin-4-yl)-1′,2′-dihydrospiro[cyclopropane-1,3′-pyrrolo[3,2-c]pyridin]-6′-yl)acetamide trifluoroacetate] | 100 to 1000 nM | ≥ 1000 nM | – | –
CC(=O)Nc1cc2c(cn1)C1(CC1)CN2c1cc(C)nc(N2CC(C(F)F)C2)n1 [Example 222, N-(1′-(2-(3-(difluoromethyl)azetidin-1-yl)-6-methylpyrimidin-4-yl)-1′,2′-dihydrospiro[cyclopropane-1,3′-pyrrolo[3,2-c]pyridin]-6′-yl)acetamide] | 10 to 100 nM | ≥ 1000 nM | – | –
CC(=O)Nc1cc2c(cn1)C1(CC1)CN2c1cc([C@H]2C[C@@H](C#N)C2)nc(C(C)(F)F)n1 [Example 74, N-(1′-(6-((1s,3s)-3-cyanocyclobutyl)-2-(1,1-difluoroethyl)pyrimidin-4-yl)-1′,2′-dihydrospiro[cyclopropane-1,3′-pyrrolo[3,2-c]pyridin]-6′-yl)acetamide or N-(1′-(6-((1r,3r)-3-cyanocyclobutyl)-2-(1,1-difluoroethyl)pyrimidin-4-yl)-1′,2′-dihydrospiro[cyclopropane-1,3′-pyrrolo[3,2-c]pyridin]-6′-yl)acetamide] | ≤ 10 nM | 10 to 100 nM | – | –
CC(=O)Nc1cc2c(cn1)C1(CC1)CN2c1cc(C)nc(N2CCC3(CC2)COC3)n1 [Example 228, N-(1′-(6-methyl-2-(2-oxa-7-azaspiro[3.5]nonan-7-yl)pyrimidin-4-yl)-1′,2′-dihydrospiro[cyclopropane-1,3′-pyrrolo[3,2-c]pyridin]-6′-yl)acetamide trifluoroacetate] | 100 to 1000 nM | ≥ 1000 nM | – | –
CC(=O)Nc1cc2c(cn1)C1(CC1)CN2c1cc(NC2CSC2)nc(C(C)(F)F)n1 [Example 166, N-(1′-(2-(1,1-difluoroethyl)-6-(thietan-3-ylamino)pyrimidin-4-yl)-1′,2′-dihydrospiro[cyclopropane-1,3′-pyrrolo[3,2-c]pyridin]-6′-yl)acetamide trifluoroacetate] | ≤ 10 nM | 10 to 100 nM | – | –
CCO/C=C\c1cc(N2CC3(CC3)c3cnc(NC(C)=O)cc32)nc(C(C)(F)F)n1 [Example 329, (Z)-N-(1′-(2-(1,1-difluoroethyl)-6-(2-ethoxyvinyl)pyrimidin-4-yl)-1′,2′-dihydrospiro[cyclopropane-1,3′-pyrrolo[3,2-c]pyridin]-6′-yl)acetamide] | ≤ 10 nM | 10 to 100 nM | – | –
CC(=O)Nc1cc2c(cn1)C1(CC1)CN2c1ccc(F)c(C(C)(F)F)n1 [Example 7, N-(1′-(6-(1,1-difluoroethyl)-5-fluoropyridin-2-yl)-1′,2′-dihydrospiro[cyclopropane-1,3′-pyrrolo[3,2-c]pyridin]-6′-yl)acetamide] | ≤ 10 nM | 100 to 1000 nM | – | –
CC(=O)Nc1cc2c(cn1)C1(CC1)CN2c1cc(C)nc(F)n1 [Example 332, N-(1′-(2-fluoro-6-methylpyrimidin-4-yl)-1′,2′-dihydrospiro[cyclopropane-1,3′-pyrrolo[3,2-c]pyridin]-6′-yl)acetamide trifluoroacetate] | 100 to 1000 nM | ≥ 1000 nM | – | –
CC(=O)Nc1cc2c(cn1)C1(CC1)CN2c1cc(C)nc(N2CCC(C)(O)C2)n1 (centres unmarked) [Example 236, N-(1′-(2-(3-hydroxy-3-methylpyrrolidin-1-yl)-6-methylpyrimidin-4-yl)-1′,2′-dihydrospiro[cyclopropane-1,3′-pyrrolo[3,2-c]pyridin]-6′-yl)acetamide] | 10 to 100 nM | ≥ 1000 nM | – | –
CC(=O)Nc1cc2c(cn1)C1(CC1)CN2c1cc(C)cc(N2CCC(N(C)C)C2)n1 (centres unmarked) [Example 192, N-(1′-(6-(3-(dimethylamino)pyrrolidin-1-yl)-4-methylpyridin-2-yl)-1′,2′-dihydrospiro[cyclopropane-1,3′-pyrrolo[3,2-c]pyridin]-6′-yl)acetamide trifluoroacetate] | 100 to 1000 nM | ≥ 1000 nM | – | –
CC(=O)Nc1cc2c(cn1)C1(CC1)CN2c1cc(OCCN(C)C)nc(C(C)(F)F)n1 [Example 140, N-(1′-(2-(1,1-difluoroethyl)-6-(2-(dimethylamino)ethoxy)pyrimidin-4-yl)-1′,2′-dihydrospiro[cyclopropane-1,3′-pyrrolo[3,2-c]pyridin]-6′-yl)acetamide trifluoroacetate] | 10 to 100 nM | ≥ 1000 nM | – | –
COC1CC(Oc2cc(C)cc(N3CC4(CC4)c4cnc(NC(C)=O)cc43)n2)C1 (centres unmarked) [Example 343, N-(1′-(6-(3-methoxycyclobutoxy)-4-methylpyridin-2-yl)-1′,2′-dihydrospiro[cyclopropane-1,3′-pyrrolo[3,2-c]pyridin]-6′-yl)acetamide trifluoroacetate] | 100 to 1000 nM | ≥ 1000 nM | – | –
CC(=O)Nc1cc2c(cn1)C1(CC1)CN2c1cc(C)nc(N2CCC2C)n1 (centres unmarked) [Example 235, N-(1′-(6-methyl-2-(2-methylazetidin-1-yl)pyrimidin-4-yl)-1′,2′-dihydrospiro[cyclopropane-1,3′-pyrrolo[3,2-c]pyridin]-6′-yl)acetamide] | ≤ 10 nM | 100 to 1000 nM | – | –
CC(=O)Nc1cc2c(cn1)C1(CC1)CN2c1cc(N2CCOCC2)nc(C(C)(F)F)n1 [Example 52, N-(1′-(2-(1,1-difluoroethyl)-6-morpholinopyrimidin-4-y1)-1′,2′-dihydrospiro[cyclopropane-1,3′-pyrrolo[3,2-c]pyridin]-6′-yl)acetamide] | ≤ 10 nM | 100 to 1000 nM | – | –
CC(=O)Nc1cc2c(cn1)C1(CC1)CN2c1cc(Oc2cncnc2)nc(C(C)(F)F)n1 [Example 142, N-(1′-(2-(1,1-difluoroethyl)-6-(pyrimidin-5-yloxy)pyrimidin-4-yl)-1′,2′-dihydrospiro[cyclopropane-1,3′-pyrrolo[3,2-c]pyridin]-6′-yl)acetamide trifluoroacetate] | 10 to 100 nM | ≥ 1000 nM | – | –
CC(=O)Nc1cc2c(cn1)C1(CC1)CN2c1cc(C)nc(C2CCCN(S(C)(=O)=O)C2)n1 (centres unmarked) [Example 119, N-(1′-(6-methyl-2-(1-(methylsulfonyl)piperidin-3-yl)pyrimidin-4-yl)-1′,2′-dihydrospiro[cyclopropane-1,3′-pyrrolo[3,2-c]pyridin]-6′-yl)acetamide] | 10 to 100 nM | 100 to 1000 nM | – | –
CC(=O)Nc1cc2c(cn1)C1(CC1)CN2c1cc(NC2CCSC2)nc(C(C)(F)F)n1 (centres unmarked) [Example 181, N-(1′-(2-(1,1-difluoroethyl)-6-((tetrahydrothiophen-3-yl)amino)pyrimidin-4-yl)-1′,2′-dihydrospiro[cyclopropane-1,3′-pyrrolo[3,2-c]pyridin]-6′-yl)acetamide] | ≤ 10 nM | 10 to 100 nM | – | –
CC(=O)Nc1cc2c(cn1)C1(CC1)CN2c1nc(C(C)(F)F)ncc1F [Example 128, N-(1′-(2-(1,1-difluoroethyl)-5-fluoropyrimidin-4-yl)-1′,2′-dihydrospiro[cyclopropane-1,3′-pyrrolo[3,2-c]pyridin]-6′-yl)acetamide] | 10 to 100 nM | ≥ 1000 nM | – | –
COCCOc1cc(N2CC3(CC3)c3cnc(NC(C)=O)cc32)nc(C(C)(F)F)c1 [Example 86, N-(1′-(6-(1,1-difluoroethyl)-4-(2-methoxyethoxy)pyridin-2-yl)-1′,2′-dihydrospiro[cyclopropane-1,3′-pyrrolo[3,2-c]pyridin]-6′-yl)acetamide] | ≤ 10 nM | ≤ 10 nM | – | –
CC(=O)Nc1cc2c(cn1)C1(CC1)CN2c1cc(Oc2cnnn2C)nc(C(C)(F)F)n1 [Example 149, N-(1′-(2-(1,1-difluoroethyl)-6-((1-methyl-1H-1,2,3-triazol-5-yl)oxy)pyrimidin-4-yl)-1′,2′-dihydrospiro[cyclopropane-1,3′-pyrrolo[3,2-c]pyridin]-6′-yl)acetamide trifluorocetate] | 10 to 100 nM | ≥ 1000 nM | – | –
CC(=O)Nc1cc2c(cn1)C1(CC1)CN2c1cc(CCCOC(C)(C)C)nc(C(C)(F)F)n1 [Example 325, N-(1′-(6-(3-(tert-butoxy)propyl)-2-(1,1-difluoroethyl)pyrimidin-4-yl)-1′,2′-dihydrospiro[cyclopropane-1,3′-pyrrolo[3,2-c]pyridin]-6′-yl)acetamide] | ≤ 10 nM | 10 to 100 nM | – | –
CC(=O)Nc1cc2c(cn1)C1(CC1)CN2c1cc(C)cc(OCC2CCO2)n1 (centres unmarked) [Example 358, N-(1′-(4-methyl-6-(oxetan-2-ylmethoxy)pyridin-2-yl)-1′,2′-dihydrospiro[cyclopropane-1,3′-pyrrolo[3,2-c]pyridin]-6′-yl)acetamide trifluoroacetate] | ≥ 1000 nM | ≥ 1000 nM | – | –
CC(=O)Nc1cc2c(cn1)C1(CC1)CN2c1cc(-c2cn[nH]c2)nc(C(C)(F)F)n1 [Example 395, N-(1′-(2-(1,1-difluoroethyl)-6-(1H-pyrazol-4-yl)pyrimidin-4-yl)-1′,2′-dihydrospiro[cyclopropane-1,3′-pyrrolo[3,2-c]pyridin]-6′-yl)acetamide trifluoroacetate] | – | – | ≤ 10 nM | 10 to 100 nM
CC(=O)Nc1cc2c(cn1)C1(CC1)CN2c1cc(C)cc(OC2CC(O)C2)n1 (centres unmarked) [Example 342, N-(1′-(6-(3-hydroxycyclobutoxy)-4-methylpyridin-2-yl)-1′,2′-dihydrospiro[cyclopropane-1,3′-pyrrolo[3,2-c]pyridin]-6′-yl)acetamide] | 100 to 1000 nM | ≥ 1000 nM | – | –
CC(=O)Nc1cc2c(cn1)C1(CC1)CN2c1cc(C)nc(N2CC[C@@H](C#N)C2)n1 [Example 407, (R)-N-(1′-(2-(3-cyanopyrrolidin-1-yl)-6-methylpyrimidin-4-yl)-1′,2′-dihydrospiro[cyclopropane-1,3′-pyrrolo[3,2-c]pyridin]-6′-yl)acetamide] | – | – | ≤ 10 nM | 100 to 1000 nM

— patent US20260258032A1, “TYROSINE KINASE 2 INHIBITORS AND USES THEREOF” (BIOGEN MA INC., priority 2022, published 2026)
